Data as given in patent US20240325460A1, “MOLECULAR BACTE[…] CONTROL SKIN ENZYMATIC ACTIVITY” (The Regents of the University of California, priority 2017, published 2024).

Experiments:
[1] = test system: normal human epidermal keratinocytes (NHEKs); test: Total protease activity of NHEK conditioned medium (BODIPY FL casein); type: cell-based; conditions: 800 μg ml applied to 24-hour posttreatment conditioned medium
Method: (§1) Culture of primary human keratinocytes. Neonatal NHEKs (ThermoFisher Scientific, Waltham, MA) were cultured in EpiLife medium (ThermoFisher Scientific) supplemented with 1× EpiLife defined growth supplement (ThermoFisher Scientific), 60 μM CaCl2, and 1× antibiotic-antimycotic (PSA; 100 U/ml penicillin, […] streptomycin, 250 ng/ml amphotericin B; ThermoFisher Scientific) at 37° C., 5% CO2. For experiments, NHEKs were grown to 70% confluency followed by differentiation in high calcium EpiLife medium (2 mM CaCl2) for 48 hours before treatment with bacteria sterile filtered supernatant. […] For bacterial supernatant treatments, differentiated NHEKs were treated with sterile filtered bacterial supernatant at 5% by volume to EpiLife medium. NHEKs were only used for experiments between passages 3 and 5.
(§2) Protease activity assays. […] Relative fluorescent intensity was analyzed with a SpectraMAX Gemini EM fluorometer (ThermoFisher Scientific) at RTwith readings every 2 hours for 24 hours. BODIPY FL casein plates were read at ex: 485 nm and em: 530 nm. Elastin-like and MMP substrate plates were read at ex: 485 nm and em: 515 nm. Trypsin-like substrate plates were read at ex: 354 nm and em: 435 nm.

[2] = test system: normal human epidermal keratinocytes (NHEKs); test: Trypsin-like activity of NHEK conditioned medium (Boc-Val-Pro-Arg-AMC substrate); type: cell-based
Method: as §1
as §2, with “435 nm. […]” for “435 nm.”
Trypsin Activity Analysis. […] Relative fluorescent intensity (ex: 354 nm, em: 435 nm) was analyzed with a SpectraMAX Gemini EM fluorometer (Thermo Fisher Scientific). […]

[3] = test system: normal human epidermal keratinocytes (NHEKs); test: RNA-Seq transcriptional profiling of NHEKs; type: cell-based; conditions: synthetic peptide, 24 h
Method: RNA sequencing. RNA was submitted to the University of California, San Diego (UCSD) genomic core facility for library preparation and sequencing. TruSeq mRNA Library Prep Kit (Illumina) was used for library prep followed by high-throughput sequencing on a HiSeq 2500 sequencer (Illumina). Data was analyzed using Partek Flow and Partek Genomics Suite software and gene ontology analysis was performed using the PANTHER classification system (http[://]pantherdb.org).

[4] = test system: KLK mRNA expression in NHEKs; test: KLK mRNA expression in NHEKs by quantitative real-time PCR; type: cell-based, human; conditions: synthetic peptide, normalized to GAPDH
Method: Quantitative real-time PCR. RNA was isolated from NHEKs using Purelink RNA isolation columns (ThermoFisher Scientific) according to the manufacturer's instructions. RNA was quantified using a Nanodrop spectrophotometer (ThermoFisher Scientific), and 500 ng of RNA was reverse-transcribed using the iScript cDNA synthesis kit (Bio-Rad, Irvine, CA). Quantitative real-time PCR reactions were ran on a CFX96 real-time detection system (Bio-Rad) using gene-specific primers and TaqMan probes (ThermoFisher Scientific).
RNA isolation and quantitative real-time PCR. All RNA was isolated using the Purelink RNA isolation kit according to manufacturer's instructions (Thermo Fisher Scientific). For NHEKs, 350 μL RNA lysis buffer (with 1% β-mercaptoethanol) was added directly to cells. For mouse tissue, 0.5 cm^2 full thickness skin was bead beat (2× 30 sec, 2.0 mm zirconia bead) in 750 μL of RNA lysis buffer with 5 minutes on ice in between. Tissue was than centrifuged (10 min, 13,000 RPM, 4° C.), followed by adding 350 μL of clear lysate to 70% EtOH and column based isolation of RNA. […] After RNA isolation, samples were quantified with a Nanodrop (ThermoFisher Scientific), and 500 ng of RNA was reverse-transcribed using the iScript cDNA synthesis kit (Bio-Rad). qPCR reactions were ran on a CFX96 Real-Time Detection System (Bio-Rad). […]

| Substance | effect of serine protease inhibitor on S. aureus-induced total protease activity [1] | dose and time dependence of trypsin activity stimulation in NHEKs ([2]; synthetic peptide) | trypsin activity in NHEKs treated with synthetic PSM peptide ([2]; synthetic peptide added to NHEKs for up to 24 h) | transcriptional profile (RNA-Seq) of NHEKs [3] | dose and time dependence of KLK6 mRNA expression in NHEKs [4] |
| --- | --- | --- | --- | --- | --- |
| aprotinin | confirmed that this activity was due to serine proteases |  |  |  |  |
| f-MEFVAKLFKFFKDLLGKFLGNN [PSMα3] |  | dose and time dependent manner | strongest PSMα trypsin activity inducers | broad effect on expression of genes related to the skin barrier | dose and time dependent manner |
